Key:
[1] = tested on: high affinity NP-specific IgG response; test: T-cell dependent NP-specific IgG response after NP-OVAL immunization, ELISA (Example 2); type: in vivo, mice; settings: 40 mg/kg/day via food admix from two days before NP-OVAL immunization until day 35, vs vehicle
Protocol: 6 to 8-weeks-old female mice C57BL/6-Tg (hIgG1,k,l) were purchased from Charles River Laboratories (Germany) and housed at the animal facilities in room with air-conditioned under a 12 hours light/dark cycle in macrolon boxes with enriched environment and free access to water and food. The mice were injected at day −2 subcutaneously with 20 μg/mouse of NP-OVAL (4-Hydroxy-3-nitrophenylacetyl hapten conjugated to ovalbumin, Biosearch Technologies, USA, Batch No 060368) with adjuvant (Alhydrogel, InvivoGen #vac-alu-250) at the both flanks or without adjuvant at day 28. The dosage of (2S,4R)-4-[4-(1-methyl-1H-pyrazol-4-yl)-2-trifluoromethyl-benzenesulfonyl]-1-(1-trifluoromethyl-cyclopropanecarbonyl)-pyrrolidine-2-carboxylic acid (1-cyano-cyclopropyl)-amide consumption was 0 (vehicle), 1, 10, 40 mg/kg/day. […]
Nunc Maxisorp flat-bottom 96 well ELISA plates were coated with 100 μl per well of NP(4)-BSA (Biosearch Technologies N-5050L; 1 mg/mL) at 1 μg/mL in NaHCO3100 mM buffer and incubated overnight at +4° C. […] 100 μl of substrate P-nitrophenyl phosphate ready to use (Life Technologies, Cat no 002212) were added per well and after 10 min incubation at room temperature, the OD at 405 nm was read as an end-point measurement with a Versamax ELISA reader.

[2] = tested on: IgG response to murine surrogate PD-L1; test: ADA against murine surrogate PD-L1 in wild-type mice, ELISA (Example 7); type: in vivo, C57BL/6 mice; settings: 40 mg/kg/day via food admix from one week before first immunization until day 23
Protocol: 10-week-old female mice C57BL/6 were purchased from Charles River Laboratories (Germany) and housed at the animal facilities in room with air-conditioned under a 12 hours light/dark cycle in macrolon boxes with enriched environment and free access to water and food. 10 mg/kg of muPD-L1 (P1AE4930-001) were injected at day 1, 8 and 15 intravenously to the group 4 (n=10 mice) and at day 1, 8, 15 and 22 to the group 5 (n=10 mice) respectively. The dosage of (2S,4R)-4-[4-(1-methyl-1H-pyrazol-4-yl)-2-trifluoromethyl-benzenesulfonyl]-1-(1-trifluoromethyl-cyclopropanecarbonyl)-pyrrolidine-2-carboxylic acid (1-cyano-cyclopropyl)-amide consumption was 40 mg/kg/day. (2S,4R)-4-[4-(1-methyl-1H-pyrazol-4-yl)-2-trifluoromethyl-benzenesulfonyl]-1-(1-trifluoromethyl-cyclopropanecarbonyl)-pyrrolidine-2-carboxylic acid (1-cyano-cyclopropyl)-amide was given via food admix (Ssniff Spezialdiäten, Germany) daily from one week before the first muPD-L1 immunization until day 23 to the group 5. […]
Nunc Maxisorp flat-bottom 96 well ELISA plates were coated with 100 μl per well of anti muPD-L1 (P1AE4930-001) at 5 μg/mL in NaHCO3100 mM buffer overnight at +4° C. […] 100 μl of substrate P-nitrophenyl phosphate ready to use (Life Technologies, Cat no 002212) were added per well and after 10 min incubation at room temperature, the OD at 405 nm was read as an end-point measurement with a Versamax ELISA reader.

SMILES: Cn1cc(-c2ccc(S(=O)(=O)[C@@H]3C[C@@H](C(=O)NC4(C#N)CC4)N(C(=O)C4(C(F)(F)F)CC4)C3)c(C(F)(F)F)c2)cn1 [cathepsin S inhibitor, (2S,4R)-4-[4-(1-methyl-1H-pyrazol-4-yl)-2-trifluoromethyl-benzenesulfonyl]-1-(1-trifluoromethyl-cyclopropanecarbonyl)-pyrrolidine-2-carboxylic acid (1-cyano-cyclopropyl)-amide]
- NP-specific IgG levels (T-cell dependent IgG response against NP) [1]: significantly reduces NP-specific IgG levels
- NP-specific IgG levels (T-cell dependent IgG response against NP) ([1]; listed as cathepsin S antagonist): effectively abrogating the T-cell dependent IgG response against NP
- ADA to mPD-L1 [2]: significantly reduced ADA to mPD-L1

Source: patent US12419862B2, “Use of a cathepsin s inhibitor against the formation of anti-drug antibodies” (Hoffmann-La Roche Inc., priority 2018, dated 2025)
